Measurements reported in patent US20220081412A1, “QUINOLINYL-PYRAZINE-CARBOXAMIDE COMPOUNDS AND USES THEREOF” (The Regents of the University of Michigan, priority 2018, published 2022).

Tested on: NCI60 cell lines
Assay: NCI60 cell line panel
Format: cell-based, human
Description: The Developmental Therapeutics Program (DTP) of NCI has evaluated more than 100,000 pure compounds and more than 34,000 crude extracts against the panel of human tumor cell lines. The resultant data are analyzed using a program called COMPARE, that rank the entire database of tested compounds in the order of the similarity of the responses. […] Thus, the NCI60 databases is highly useful to the cancer research community. Further experiments were conducted that tested some of the active compounds in a panel of NCI60 cell line to relate our compounds with some known inhibitors to have an idea of possible mechanism of action.
In order to understand the selectivity of these compounds in different cancer types, some of them were tested against a panel of 60 cell lines (Table XXXIX).

[1] = Non-Small Cell Lung Cancer, A549/ATCC
[2] = Non-Small Cell Lung Cancer, EKVX
[3] = Non-Small Cell Lung Cancer, HOP-62
[4] = Non-Small Cell Lung Cancer, HOP-92
[5] = Non-Small Cell Lung Cancer, NCI-H23
[6] = Non-Small Cell Lung Cancer, NCI-H226
[7] = Non-Small Cell Lung Cancer, NCI-H322M
[8] = Non-Small Cell Lung Cancer, NCI-H460
[9] = Non-Small Cell Lung Cancer, NCI-H522

CCN(CC)CCCC(C)Nc1cnc(C(=O)Nc2ccc(Cl)c3cccnc23)cn1 (stereo not shown) [J9, N-(5-chloroquinolin-8-yl)-5-((5-(diethylamino)pentan-2-yl)amino)pyrazine-2-carboxamide]
GIPRCNT: % Growth inhibition (Breast Cancer, BT-549): 80.08%
GIPRCNT: % Growth inhibition (Breast Cancer, HS 578T): 51.41%
GIPRCNT: % Growth inhibition (Breast Cancer, MCF7): −2.145%
GIPRCNT: % Growth inhibition (Breast Cancer, MDA-MB-231/ATCC): −29.6765%
GIPRCNT: % Growth inhibition (Breast Cancer, MDA-MB-468): −28.0145%
GIPRCNT: % Growth inhibition (Breast Cancer, T-47D): −49.3289%
GIPRCNT: % Growth inhibition (CNS Cancer, SF-268): 35.85%
GIPRCNT: % Growth inhibition (CNS Cancer, SF-295): 63.03%
GIPRCNT: % Growth inhibition (CNS Cancer, SF-539): −73.563%
GIPRCNT: % Growth inhibition (CNS Cancer, SNB-19): 49.65%
GIPRCNT: % Growth inhibition (CNS Cancer, SNB-75): 41.7%
GIPRCNT: % Growth inhibition (CNS Cancer, U251): −35.3044%
GIPRCNT: % Growth inhibition (Colon Cancer, COLO 205): −66.6925%
GIPRCNT: % Growth inhibition (Colon Cancer, HCC-2998): 32.59%
GIPRCNT: % Growth inhibition (Colon Cancer, HCT-15): 3.732%
GIPRCNT: % Growth inhibition (Colon Cancer, HCT-116): −52.4351%
GIPRCNT: % Growth inhibition (Colon Cancer, HT29): −49.3651%
GIPRCNT: % Growth inhibition (Colon Cancer, KM12): 30.3%
GIPRCNT: % Growth inhibition (Colon Cancer, SW-620): 0.6189%
GIPRCNT: % Growth inhibition (Leukemia, CCRF-CEM): 5.288%
GIPRCNT: % Growth inhibition (Leukemia, HL-60(TB)): −63.3005%
GIPRCNT: % Growth inhibition (Leukemia, K-562): −45.7589%
GIPRCNT: % Growth inhibition (Leukemia, MOLT-4): 2.901%
GIPRCNT: % Growth inhibition (Leukemia, RPMI-8226): 2.196%
GIPRCNT: % Growth inhibition (Leukemia, SR): 1.416%
GIPRCNT: % Growth inhibition (Melanoma, LOX IMVI): −83.8894%
GIPRCNT: % Growth inhibition (Melanoma, M14): −73.1499%
GIPRCNT: % Growth inhibition (Melanoma, MALME-3M): −71.7698%
GIPRCNT: % Growth inhibition (Melanoma, MDA-MB-435): −57.8225%
GIPRCNT: % Growth inhibition (Melanoma, SK-MEL-2): 57.84%
GIPRCNT: % Growth inhibition (Melanoma, SK-MEL-5): −3.699%
GIPRCNT: % Growth inhibition (Melanoma, UACC-62): −52.4398%
GIPRCNT: % Growth inhibition (Melanoma, UACC-257): −32.9601%
GIPRCNT: % Growth inhibition [1]: 23.43%
GIPRCNT: % Growth inhibition [2]: 66.07%
GIPRCNT: % Growth inhibition [3]: 43.04%
GIPRCNT: % Growth inhibition [4]: 38.78%
GIPRCNT: % Growth inhibition [5]: 80.43%
GIPRCNT: % Growth inhibition [6]: 39.13%
GIPRCNT: % Growth inhibition [7]: 35.3%
GIPRCNT: % Growth inhibition [8]: 3.469%
GIPRCNT: % Growth inhibition [9]: 4.415%
GIPRCNT: % Growth inhibition (Ovarian Cancer, IGROV1): 44.22%
GIPRCNT: % Growth inhibition (Ovarian Cancer, NCI/ADR-RES): 52.19%
GIPRCNT: % Growth inhibition (Ovarian Cancer, OVCAR-3): −23.663%
GIPRCNT: % Growth inhibition (Ovarian Cancer, OVCAR-4): 51.32%
GIPRCNT: % Growth inhibition (Ovarian Cancer, OVCAR-5): 53.28%
GIPRCNT: % Growth inhibition (Ovarian Cancer, OVCAR-8): 27.34%
GIPRCNT: % Growth inhibition (Ovarian Cancer, SK-OV-3): 79.51%
GIPRCNT: % Growth inhibition (Prostate Cancer, DU-145): 53.1%
GIPRCNT: % Growth inhibition (Prostate Cancer, PC-3): 39.38%
GIPRCNT: % Growth inhibition (Renal Cancer, 786-0): −44.1831%
GIPRCNT: % Growth inhibition (Renal Cancer, A498): 53.99%
GIPRCNT: % Growth inhibition (Renal Cancer, ACHN): −54.7701%
GIPRCNT: % Growth inhibition (Renal Cancer, CAKI-1): 23.14%
GIPRCNT: % Growth inhibition (Renal Cancer, RXF 393): 18.75%
GIPRCNT: % Growth inhibition (Renal Cancer, SN12C): 31.6819%
GIPRCNT: % Growth inhibition (Renal Cancer, TK-10): 57.61%
GIPRCNT: % Growth inhibition (Renal Cancer, UO-31): 23.83%

CCN(CC)CCCC(C)Nc1cnc(C(=O)Nc2cccc3ccc(OC)nc23)cn1 (stereo not shown) [J11, 5-((5-(diethylamino)pentan-2-yl)amino)-N-(2-methoxyquinolin-8-yl)pyrazine-2-carboxamide]
GIPRCNT: % Growth inhibition (Breast Cancer, BT-549): 83.22%
GIPRCNT: % Growth inhibition (Breast Cancer, HS 578T): 69.51%
GIPRCNT: % Growth inhibition (Breast Cancer, MCF7): 20.06%
GIPRCNT: % Growth inhibition (Breast Cancer, MDA-MB-231/ATCC): 71.85%
GIPRCNT: % Growth inhibition (Breast Cancer, MDA-MB-468): 79.15%
GIPRCNT: % Growth inhibition (Breast Cancer, T-47D): 83.88%
GIPRCNT: % Growth inhibition (CNS Cancer, SF-268): 63.03%
GIPRCNT: % Growth inhibition (CNS Cancer, SF-295): 100.8191%
GIPRCNT: % Growth inhibition (CNS Cancer, SF-539): 0.4567%
GIPRCNT: % Growth inhibition (CNS Cancer, SNB-19): 94.85%
GIPRCNT: % Growth inhibition (CNS Cancer, SNB-75): 75.89%
GIPRCNT: % Growth inhibition (CNS Cancer, U251): 56.1223%
GIPRCNT: % Growth inhibition (Colon Cancer, COLO 205): 71.37%
GIPRCNT: % Growth inhibition (Colon Cancer, HCC-2998): 90.92%
GIPRCNT: % Growth inhibition (Colon Cancer, HCT-15): −25.625%
GIPRCNT: % Growth inhibition (Colon Cancer, HCT-116): −36.0085%
GIPRCNT: % Growth inhibition (Colon Cancer, HT29): −47.1759%
GIPRCNT: % Growth inhibition (Colon Cancer, KM12): 36.32%
GIPRCNT: % Growth inhibition (Colon Cancer, SW-620): 2.118%
GIPRCNT: % Growth inhibition (Leukemia, CCRF-CEM): −7.649%
GIPRCNT: % Growth inhibition (Leukemia, HL-60(TB)): 72.3913%
GIPRCNT: % Growth inhibition (Leukemia, K-562): −57.0747%
GIPRCNT: % Growth inhibition (Leukemia, MOLT-4): 53.43%
GIPRCNT: % Growth inhibition (Leukemia, RPMI-8226): 23.8%
GIPRCNT: % Growth inhibition (Leukemia, SR): −5.71%
GIPRCNT: % Growth inhibition (Melanoma, LOX IMVI): −89.8952%
GIPRCNT: % Growth inhibition (Melanoma, M14): −75.6475%
GIPRCNT: % Growth inhibition (Melanoma, MALME-3M): −69.7804%
GIPRCNT: % Growth inhibition (Melanoma, MDA-MB-435): −58.2282%
GIPRCNT: % Growth inhibition (Melanoma, SK-MEL-2): 70.47%
GIPRCNT: % Growth inhibition (Melanoma, SK-MEL-5): 5.402%
GIPRCNT: % Growth inhibition (Melanoma, UACC-62): −57.758%
GIPRCNT: % Growth inhibition (Melanoma, UACC-257): −39.0086%
GIPRCNT: % Growth inhibition [1]: 81.18%
GIPRCNT: % Growth inhibition [2]: 104.0141%
GIPRCNT: % Growth inhibition [3]: 94.18%
GIPRCNT: % Growth inhibition [4]: 49.4978%
GIPRCNT: % Growth inhibition [5]: 96.1%
GIPRCNT: % Growth inhibition [6]: 61.44%
GIPRCNT: % Growth inhibition [7]: 75.47%
GIPRCNT: % Growth inhibition [8]: 1.048%
GIPRCNT: % Growth inhibition [9]: 5.069%
GIPRCNT: % Growth inhibition (Ovarian Cancer, IGROV1): 78.33%
GIPRCNT: % Growth inhibition (Ovarian Cancer, NCI/ADR-RES): 76.12%
GIPRCNT: % Growth inhibition (Ovarian Cancer, OVCAR-3): −30.7372%
GIPRCNT: % Growth inhibition (Ovarian Cancer, OVCAR-4): 98.13%
GIPRCNT: % Growth inhibition (Ovarian Cancer, OVCAR-5): 91.29%
GIPRCNT: % Growth inhibition (Ovarian Cancer, OVCAR-8): 68.24%
GIPRCNT: % Growth inhibition (Ovarian Cancer, SK-OV-3): 86.95%
GIPRCNT: % Growth inhibition (Prostate Cancer, DU-145): 78.79%
GIPRCNT: % Growth inhibition (Prostate Cancer, PC-3): 69.52%
GIPRCNT: % Growth inhibition (Renal Cancer, 786-0): 73.41%
GIPRCNT: % Growth inhibition (Renal Cancer, A498): 46.17%
GIPRCNT: % Growth inhibition (Renal Cancer, ACHN): −86.4619%
GIPRCNT: % Growth inhibition (Renal Cancer, CAKI-1): 94.69%
GIPRCNT: % Growth inhibition (Renal Cancer, RXF 393): 45.96%
GIPRCNT: % Growth inhibition (Renal Cancer, SN12C): 78.47%
GIPRCNT: % Growth inhibition (Renal Cancer, TK-10): 90.98%
GIPRCNT: % Growth inhibition (Renal Cancer, UO-31): 69.07%
